Drawing on ChEMBL document CHEMBL1146654, “3-(7-Azaindolyl)-4-arylmaleimides as potent, selective inhibitors of glycogen synthase kinase-3” (Bioorg Med Chem Lett, 2004), this text covers Activity and IC50 for three compounds.

Assay [1] deals with T1, Inhibitor of nuclear factor kappa-B kinase subunit beta (Homo sapiens) (UniProt O14920).
T1 sequence (whole entry): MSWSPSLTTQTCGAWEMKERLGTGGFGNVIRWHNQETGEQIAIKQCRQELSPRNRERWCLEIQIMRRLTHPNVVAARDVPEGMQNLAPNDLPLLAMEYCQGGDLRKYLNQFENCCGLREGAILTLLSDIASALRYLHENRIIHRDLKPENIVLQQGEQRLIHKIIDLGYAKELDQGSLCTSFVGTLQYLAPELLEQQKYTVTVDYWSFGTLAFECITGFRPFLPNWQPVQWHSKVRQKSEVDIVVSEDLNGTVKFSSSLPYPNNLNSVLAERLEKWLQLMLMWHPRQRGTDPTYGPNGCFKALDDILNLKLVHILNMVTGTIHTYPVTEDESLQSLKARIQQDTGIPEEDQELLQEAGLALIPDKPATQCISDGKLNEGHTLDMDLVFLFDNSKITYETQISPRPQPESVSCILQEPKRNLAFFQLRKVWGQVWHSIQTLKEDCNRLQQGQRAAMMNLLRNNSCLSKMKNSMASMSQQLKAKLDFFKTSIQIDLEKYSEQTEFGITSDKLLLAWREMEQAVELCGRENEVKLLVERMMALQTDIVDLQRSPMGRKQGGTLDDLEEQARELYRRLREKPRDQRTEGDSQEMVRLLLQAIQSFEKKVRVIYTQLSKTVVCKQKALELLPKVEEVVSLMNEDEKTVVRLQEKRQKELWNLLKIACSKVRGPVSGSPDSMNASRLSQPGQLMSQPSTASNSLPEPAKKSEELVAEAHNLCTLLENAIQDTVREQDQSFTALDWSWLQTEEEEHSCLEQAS
Put plainly: Inhibition of I-kappa-B-kinase beta. Also noted: scale not given: the % may be the effect or the level left.

For assay [2], the target named is Cyclin-dependent kinase 1/cyclin B (Homo sapiens, UniProt P06493). Put plainly: Inhibition of Cyclin-dependent kinase 1-cyclin B. Format: protein-complex assay.
Assay [3] has as its target Mitogen-activated protein kinase 3 (Homo sapiens) (UniProt P27361). Put plainly: Inhibition of compound against mitogen-activated protein kinase 1. Details: scale not given: the % may be the effect or the level left.
For assay [4], the species on record is Rattus norvegicus. Kind of assay: Inhibition of AMP-activated Protein Kinase. Details: scale not given: the % may be the effect or the level left.
Assay [5] concerns the target Insulin-like growth factor 1 receptor (Homo sapiens) (UniProt P08069). Put plainly: Inhibition of insulin-like growth factor I receptor. Also noted: scale not given: the % may be the effect or the level left.
The target of assay [6] is T2, Calcium/calmodulin-dependent protein kinase type IV (Homo sapiens) (UniProt Q16566).
T2 sequence (whole entry): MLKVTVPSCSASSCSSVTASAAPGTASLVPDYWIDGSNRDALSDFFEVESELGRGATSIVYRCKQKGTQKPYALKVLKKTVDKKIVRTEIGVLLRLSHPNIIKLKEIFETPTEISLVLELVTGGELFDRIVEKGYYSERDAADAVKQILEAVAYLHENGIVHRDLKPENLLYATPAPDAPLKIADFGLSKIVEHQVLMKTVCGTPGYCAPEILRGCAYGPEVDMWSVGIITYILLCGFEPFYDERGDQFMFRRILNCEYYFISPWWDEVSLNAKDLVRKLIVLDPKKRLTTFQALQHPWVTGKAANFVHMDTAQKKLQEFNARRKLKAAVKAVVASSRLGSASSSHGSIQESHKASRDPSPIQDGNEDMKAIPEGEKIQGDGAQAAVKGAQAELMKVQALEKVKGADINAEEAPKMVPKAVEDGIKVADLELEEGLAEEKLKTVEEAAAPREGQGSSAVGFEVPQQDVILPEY
Put plainly: Inhibition of Calcium/calmodulin-dependent protein kinase type IV. Details: scale not given: the % may be the effect or the level left.

In assay [7] the target is Proto-oncogene tyrosine-protein kinase Src (Homo sapiens) (UniProt P12931). Kind of assay: Inhibition of c-Src tyrosine kinase. Also noted: scale not given: the % may be the effect or the level left.
Assay [8] addresses Mitogen-activated protein kinase 14 (Homo sapiens) (UniProt Q16539). Put plainly: Inhibition of Stress activated protein kinase 2a. Also noted: scale not given: the % may be the effect or the level left.
For assay [9], the target named is Serine/threonine-protein kinase Chk2 (Homo sapiens) (UniProt O96017). Put plainly: Inhibition of Serine/threonine-protein kinase Chk2. Also noted: scale not given: the % may be the effect or the level left.
Assay [10] deals with Serine/threonine-protein kinase PAK 2 (Homo sapiens) (UniProt Q13177). Kind of assay: Inhibition of PAK2. Also noted: scale not given: the % may be the effect or the level left.
The target of assay [11] is Mitogen-activated protein kinase 8 (Homo sapiens) (UniProt P45983). Put plainly: Inhibition of c-Jun N-terminal kinase 1-alpha 1. Details: scale not given: the % may be the effect or the level left.
Assay [12] has as its target Dual specificity mitogen-activated protein kinase kinase 1 (Homo sapiens) (UniProt Q02750). Kind of assay: Inhibition of mitogen activated protein kinase kinase 1. Also noted: scale not given: the % may be the effect or the level left.
Assay [13] has as its target Ribosomal protein S6 kinase (P70S6K) (Homo sapiens) (UniProt Q9UBS0+P23443). Put plainly: Inhibition of p70 Ribosomal protein S6 kinase. Format: protein-complex assay. Also noted: scale not given: the % may be the effect or the level left.
Assay [14] deals with RAC-alpha serine/threonine-protein kinase (Homo sapiens) (UniProt P31749). Kind of assay: Inhibition of PKBalpha. Also noted: scale not given: the % may be the effect or the level left.
In assay [15] the target is Serine/threonine-protein kinase N2 (Homo sapiens) (UniProt Q16513). Kind of assay: Inhibition of compound PRK2. Details: scale not given: the % may be the effect or the level left.
The species entered for assay [16] is Bos taurus. Put plainly: Inhibition of bovine PKA. Also noted: scale not given: the % may be the effect or the level left.
For assay [17], the target named is T3, Serine/threonine-protein kinase Chk1 (Homo sapiens) (UniProt O14757).
T3 sequence (whole entry): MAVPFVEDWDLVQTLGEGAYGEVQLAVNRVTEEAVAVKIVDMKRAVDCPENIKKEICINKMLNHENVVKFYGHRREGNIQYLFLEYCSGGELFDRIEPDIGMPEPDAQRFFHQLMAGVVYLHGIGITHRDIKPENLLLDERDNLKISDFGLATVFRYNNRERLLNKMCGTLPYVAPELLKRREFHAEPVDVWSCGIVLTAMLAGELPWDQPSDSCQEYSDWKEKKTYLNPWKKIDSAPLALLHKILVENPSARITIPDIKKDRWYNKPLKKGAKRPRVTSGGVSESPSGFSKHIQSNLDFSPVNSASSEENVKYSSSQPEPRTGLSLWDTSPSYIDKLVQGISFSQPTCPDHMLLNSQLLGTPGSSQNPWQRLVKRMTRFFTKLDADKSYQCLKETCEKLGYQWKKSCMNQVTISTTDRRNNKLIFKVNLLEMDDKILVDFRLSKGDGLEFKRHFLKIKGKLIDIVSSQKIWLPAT
Kind of assay: Inhibition of Serine/threonine-protein kinase Chk1. Details: scale not given: the % may be the effect or the level left.

In assay [18] the target is Casein kinase II (Homo sapiens) (UniProt P67870+P68400+P19784). Put plainly: Inhibition of Casein kinase 2. Also noted: scale not given: the % may be the effect or the level left. Format: protein-complex assay.
Assay [19] addresses Glycogen synthase kinase-3 beta (Homo sapiens, UniProt P49841). Put plainly: Inhibition of glycogen synthase kinase-3 beta. Also noted: scale not given: the % may be the effect or the level left.
For assay [20], the target named is Rho-associated protein kinase 2 (Homo sapiens) (UniProt O75116). Kind of assay: (§1) Inhibition of ROCK-II. Details: scale not given: the % may be the effect or the level left.
For assay [21], the target named is Rho-associated protein kinase 2 (Rattus norvegicus) (UniProt Q62868). Described as §1. Also noted: scale not given: the % may be the effect or the level left.

Chain of Mitogen-activated protein kinase 3 (Homo sapiens) (P27361 whole entry): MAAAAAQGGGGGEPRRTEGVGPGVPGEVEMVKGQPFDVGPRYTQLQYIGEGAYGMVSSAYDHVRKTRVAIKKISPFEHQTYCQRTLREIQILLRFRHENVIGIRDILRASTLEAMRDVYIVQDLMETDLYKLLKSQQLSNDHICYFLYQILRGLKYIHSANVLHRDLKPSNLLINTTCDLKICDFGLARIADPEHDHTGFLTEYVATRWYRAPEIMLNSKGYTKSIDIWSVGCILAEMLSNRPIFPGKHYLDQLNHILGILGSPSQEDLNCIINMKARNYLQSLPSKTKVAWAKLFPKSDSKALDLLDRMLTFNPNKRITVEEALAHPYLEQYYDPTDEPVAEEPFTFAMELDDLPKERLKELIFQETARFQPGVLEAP
Chain of Serine/threonine-protein kinase PAK 2 (Homo sapiens) (Q13177 whole entry): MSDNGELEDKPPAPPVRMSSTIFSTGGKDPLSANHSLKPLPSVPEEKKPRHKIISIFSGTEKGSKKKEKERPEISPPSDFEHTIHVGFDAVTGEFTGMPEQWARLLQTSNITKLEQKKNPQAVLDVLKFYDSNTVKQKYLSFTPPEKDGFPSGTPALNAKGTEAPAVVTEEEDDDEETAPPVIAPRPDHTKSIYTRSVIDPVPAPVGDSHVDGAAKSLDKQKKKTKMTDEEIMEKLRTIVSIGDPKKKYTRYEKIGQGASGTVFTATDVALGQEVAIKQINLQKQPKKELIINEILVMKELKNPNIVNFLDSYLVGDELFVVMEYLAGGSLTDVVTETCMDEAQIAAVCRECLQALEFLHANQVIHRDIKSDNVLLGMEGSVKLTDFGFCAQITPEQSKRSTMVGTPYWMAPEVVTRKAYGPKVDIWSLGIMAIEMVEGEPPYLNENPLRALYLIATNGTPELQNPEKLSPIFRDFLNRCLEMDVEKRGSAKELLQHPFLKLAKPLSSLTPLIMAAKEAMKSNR
Chain of Glycogen synthase kinase-3 beta (P49841 whole entry, looked up): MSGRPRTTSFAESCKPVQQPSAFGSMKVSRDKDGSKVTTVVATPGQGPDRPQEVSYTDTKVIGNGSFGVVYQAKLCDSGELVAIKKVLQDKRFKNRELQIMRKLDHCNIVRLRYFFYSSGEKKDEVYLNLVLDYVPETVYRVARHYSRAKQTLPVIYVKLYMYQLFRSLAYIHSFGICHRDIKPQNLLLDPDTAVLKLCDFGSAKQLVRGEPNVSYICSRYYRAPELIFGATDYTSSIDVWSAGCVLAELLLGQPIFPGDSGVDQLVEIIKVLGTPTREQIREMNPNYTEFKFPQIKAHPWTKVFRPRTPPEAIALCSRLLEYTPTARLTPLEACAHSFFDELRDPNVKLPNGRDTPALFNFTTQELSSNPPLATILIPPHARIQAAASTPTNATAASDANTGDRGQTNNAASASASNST
Chain of Insulin-like growth factor 1 receptor (Homo sapiens) (P08069 31-736 limits assumed): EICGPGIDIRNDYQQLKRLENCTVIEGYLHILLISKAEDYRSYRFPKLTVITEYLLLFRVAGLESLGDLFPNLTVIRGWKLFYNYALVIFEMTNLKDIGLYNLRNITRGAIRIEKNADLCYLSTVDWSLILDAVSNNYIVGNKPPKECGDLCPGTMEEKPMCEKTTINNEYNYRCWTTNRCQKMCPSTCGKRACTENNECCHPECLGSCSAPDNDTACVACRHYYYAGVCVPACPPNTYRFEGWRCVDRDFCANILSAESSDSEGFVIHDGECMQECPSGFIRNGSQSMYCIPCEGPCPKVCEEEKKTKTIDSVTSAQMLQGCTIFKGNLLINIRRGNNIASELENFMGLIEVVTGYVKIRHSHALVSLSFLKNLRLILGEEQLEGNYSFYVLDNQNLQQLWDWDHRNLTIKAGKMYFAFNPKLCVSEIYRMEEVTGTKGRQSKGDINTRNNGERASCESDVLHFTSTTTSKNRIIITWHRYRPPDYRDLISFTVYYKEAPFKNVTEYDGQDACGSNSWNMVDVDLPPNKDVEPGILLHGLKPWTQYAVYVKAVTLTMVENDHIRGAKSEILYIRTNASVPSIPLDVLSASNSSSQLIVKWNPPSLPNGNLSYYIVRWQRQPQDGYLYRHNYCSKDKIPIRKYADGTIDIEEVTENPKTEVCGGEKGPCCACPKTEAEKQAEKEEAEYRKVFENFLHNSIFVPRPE
Chain of Insulin-like growth factor 1 receptor (Homo sapiens) (P08069 741-1367 limits assumed): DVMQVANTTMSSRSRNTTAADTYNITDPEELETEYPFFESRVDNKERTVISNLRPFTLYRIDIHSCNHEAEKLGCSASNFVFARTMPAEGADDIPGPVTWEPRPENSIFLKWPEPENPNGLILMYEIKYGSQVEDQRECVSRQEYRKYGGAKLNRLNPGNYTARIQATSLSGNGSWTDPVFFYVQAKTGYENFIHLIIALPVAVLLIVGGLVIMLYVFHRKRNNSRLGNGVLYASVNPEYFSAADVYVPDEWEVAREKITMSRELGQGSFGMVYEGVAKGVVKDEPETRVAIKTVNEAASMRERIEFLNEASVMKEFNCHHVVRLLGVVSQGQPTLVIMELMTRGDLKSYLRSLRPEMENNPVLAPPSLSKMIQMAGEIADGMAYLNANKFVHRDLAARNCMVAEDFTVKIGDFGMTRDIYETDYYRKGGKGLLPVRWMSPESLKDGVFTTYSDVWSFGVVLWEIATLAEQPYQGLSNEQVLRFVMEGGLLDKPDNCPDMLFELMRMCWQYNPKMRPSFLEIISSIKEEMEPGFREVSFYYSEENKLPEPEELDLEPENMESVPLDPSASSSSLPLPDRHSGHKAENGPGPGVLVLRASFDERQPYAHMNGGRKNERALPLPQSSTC
Chain of Rho-associated protein kinase 2 (Homo sapiens) (O75116 whole entry, looked up): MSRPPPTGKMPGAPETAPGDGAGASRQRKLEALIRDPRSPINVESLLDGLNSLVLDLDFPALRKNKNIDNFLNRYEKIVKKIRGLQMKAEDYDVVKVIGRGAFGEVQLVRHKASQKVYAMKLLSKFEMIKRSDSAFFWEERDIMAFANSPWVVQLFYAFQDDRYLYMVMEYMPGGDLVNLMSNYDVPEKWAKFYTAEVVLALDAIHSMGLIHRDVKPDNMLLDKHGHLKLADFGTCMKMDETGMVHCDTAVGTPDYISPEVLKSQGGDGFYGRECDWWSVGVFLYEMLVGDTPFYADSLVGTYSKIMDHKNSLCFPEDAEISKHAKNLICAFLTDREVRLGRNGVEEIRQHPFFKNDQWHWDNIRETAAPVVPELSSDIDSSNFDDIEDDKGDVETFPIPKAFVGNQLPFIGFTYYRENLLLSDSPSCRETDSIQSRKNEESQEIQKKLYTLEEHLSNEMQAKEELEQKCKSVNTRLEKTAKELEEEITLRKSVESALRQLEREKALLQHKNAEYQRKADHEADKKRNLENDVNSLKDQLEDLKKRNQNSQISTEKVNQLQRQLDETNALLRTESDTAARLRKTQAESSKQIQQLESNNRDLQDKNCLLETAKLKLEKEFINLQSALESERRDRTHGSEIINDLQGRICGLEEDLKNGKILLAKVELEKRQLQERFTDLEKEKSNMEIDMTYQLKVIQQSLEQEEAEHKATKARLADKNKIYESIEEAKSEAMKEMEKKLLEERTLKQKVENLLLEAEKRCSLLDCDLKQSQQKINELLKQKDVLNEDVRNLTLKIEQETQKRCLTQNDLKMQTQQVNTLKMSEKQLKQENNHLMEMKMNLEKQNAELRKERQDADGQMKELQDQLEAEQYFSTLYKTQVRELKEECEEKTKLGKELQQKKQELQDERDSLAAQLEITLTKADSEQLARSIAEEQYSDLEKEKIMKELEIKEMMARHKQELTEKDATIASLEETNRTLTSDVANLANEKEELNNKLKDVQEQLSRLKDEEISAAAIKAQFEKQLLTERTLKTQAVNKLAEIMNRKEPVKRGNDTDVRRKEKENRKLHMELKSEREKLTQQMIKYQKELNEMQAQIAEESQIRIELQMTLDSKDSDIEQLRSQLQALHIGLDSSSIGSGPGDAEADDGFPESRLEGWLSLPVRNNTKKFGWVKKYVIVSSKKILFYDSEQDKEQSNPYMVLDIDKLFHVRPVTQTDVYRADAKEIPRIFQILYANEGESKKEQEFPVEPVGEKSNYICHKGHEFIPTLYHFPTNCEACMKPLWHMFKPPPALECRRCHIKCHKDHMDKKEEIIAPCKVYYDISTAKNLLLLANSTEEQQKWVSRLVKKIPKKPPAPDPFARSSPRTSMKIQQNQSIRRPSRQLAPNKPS
Chain of Mitogen-activated protein kinase 14 (Homo sapiens) (Q16539 whole entry): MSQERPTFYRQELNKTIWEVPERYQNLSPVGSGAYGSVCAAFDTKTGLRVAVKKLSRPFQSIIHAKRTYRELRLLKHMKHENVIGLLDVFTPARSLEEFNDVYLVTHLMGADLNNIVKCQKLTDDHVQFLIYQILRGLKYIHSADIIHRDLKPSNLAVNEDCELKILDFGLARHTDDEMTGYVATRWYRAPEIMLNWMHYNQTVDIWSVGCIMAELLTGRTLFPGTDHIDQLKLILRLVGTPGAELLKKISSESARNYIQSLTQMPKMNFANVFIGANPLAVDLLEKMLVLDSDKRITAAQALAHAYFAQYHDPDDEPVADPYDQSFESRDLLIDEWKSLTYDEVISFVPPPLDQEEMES
Chain of Mitogen-activated protein kinase 8 (Homo sapiens) (P45983 whole entry): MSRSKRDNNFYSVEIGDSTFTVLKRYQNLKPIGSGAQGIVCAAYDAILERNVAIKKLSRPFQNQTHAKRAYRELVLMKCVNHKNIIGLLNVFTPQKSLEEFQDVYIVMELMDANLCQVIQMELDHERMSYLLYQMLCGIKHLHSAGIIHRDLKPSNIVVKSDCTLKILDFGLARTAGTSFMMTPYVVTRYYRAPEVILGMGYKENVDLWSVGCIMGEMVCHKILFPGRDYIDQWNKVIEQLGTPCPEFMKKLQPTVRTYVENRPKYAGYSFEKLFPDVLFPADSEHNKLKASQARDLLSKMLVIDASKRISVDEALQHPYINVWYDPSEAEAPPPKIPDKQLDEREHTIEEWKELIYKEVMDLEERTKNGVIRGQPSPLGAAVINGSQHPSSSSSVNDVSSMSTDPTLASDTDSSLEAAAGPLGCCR

For orientation: IC50 means the concentration needed to halve the response being measured. As to `COc1ccccc1C1=C(c2cn(CCCNC(=O)OC(C)(C)C)c3ncccc23)C(=O)NC1=O`, the Activity in assay [1] amounted to 91%; in [3], 81%; in assay [4] it was 64%; in assay [5], 86%; in [6] it was 91%; in [7] it was 74%. Moreover, the Activity in [8] stood at 109%; in assay [9], 49%; in [10], 93%; in assay [11], 81%; in [12], 100%; in [13], 82%. Further, the Activity was 103% in assay [14]; 68% in assay [15]; 112% in assay [16]; 95% in [17]; 103% in assay [18]; 0% in assay [19]. Further, the figures for the Activity in assay [20] and in [21] were 78% and 91%, respectively. It took 170 nM to reach half-maximal inhibition in [2] (IC50).
As for `COCCCn1cc(C2=C(c3ccccc3O)C(=O)NC2=O)c2cccnc21`, the Activity is 81% in assay [1]; 78% in assay [3]; 68% in assay [4]; 80% in assay [5]; 82% in assay [6]; 99% in assay [7]. The Activity in [8] came to 84%; in assay [9], 75%; in [10], 94%; in [11], 75%; in assay [12], 94%; in assay [13] it was 87%. In addition, the Activity in [14] worked out at 93%; in assay [15], 76%; in assay [16] it was 99%; in assay [17], 78%; in [18], 93%; in [19], 1%. For the same compound, the Activity in assay [20] was 100%; in assay [21], 94%. It took 700 nM to reach half-maximal inhibition in [2] (IC50).
Turning to `O=C1NC(=O)C(c2cn(CCCO)c3ncccc23)=C1c1ncc(C(F)(F)F)cc1Cl`, the Activity came out at 83% in assay [1]; 66% in [3]; 74% in [4]; 78% in assay [5]; 82% in [6]; 93% in assay [7]. In addition, the Activity in [8] was determined as 81%; in assay [9], 92%; in assay [10] it was 78%; in assay [11], 80%; in [12], 74%; in assay [13], 88%. The Activity in assay [14] amounted to 64%; in assay [15], 71%; in [16] it was 86%; in assay [17], 73%; in assay [18], 56%; in [19], 3%. For the same compound, the Activity in [20] turned out to be 90%; in assay [21], 97%. This compound also registered an IC50 in assay [2] of 5800 nM.
